Assay results taken from patent publication US20260138961A1, “MODULATORS OF MITOCHONDRIAL DNA REPLICATION” (Pretzel Therapeutics, Inc., priority 2022, published 2026).

Molecular target: T1, POLγA:A467T (Homo sapiens, UniProt P54098, A467T)
T1 sequence (P54098 1-1239 A467T): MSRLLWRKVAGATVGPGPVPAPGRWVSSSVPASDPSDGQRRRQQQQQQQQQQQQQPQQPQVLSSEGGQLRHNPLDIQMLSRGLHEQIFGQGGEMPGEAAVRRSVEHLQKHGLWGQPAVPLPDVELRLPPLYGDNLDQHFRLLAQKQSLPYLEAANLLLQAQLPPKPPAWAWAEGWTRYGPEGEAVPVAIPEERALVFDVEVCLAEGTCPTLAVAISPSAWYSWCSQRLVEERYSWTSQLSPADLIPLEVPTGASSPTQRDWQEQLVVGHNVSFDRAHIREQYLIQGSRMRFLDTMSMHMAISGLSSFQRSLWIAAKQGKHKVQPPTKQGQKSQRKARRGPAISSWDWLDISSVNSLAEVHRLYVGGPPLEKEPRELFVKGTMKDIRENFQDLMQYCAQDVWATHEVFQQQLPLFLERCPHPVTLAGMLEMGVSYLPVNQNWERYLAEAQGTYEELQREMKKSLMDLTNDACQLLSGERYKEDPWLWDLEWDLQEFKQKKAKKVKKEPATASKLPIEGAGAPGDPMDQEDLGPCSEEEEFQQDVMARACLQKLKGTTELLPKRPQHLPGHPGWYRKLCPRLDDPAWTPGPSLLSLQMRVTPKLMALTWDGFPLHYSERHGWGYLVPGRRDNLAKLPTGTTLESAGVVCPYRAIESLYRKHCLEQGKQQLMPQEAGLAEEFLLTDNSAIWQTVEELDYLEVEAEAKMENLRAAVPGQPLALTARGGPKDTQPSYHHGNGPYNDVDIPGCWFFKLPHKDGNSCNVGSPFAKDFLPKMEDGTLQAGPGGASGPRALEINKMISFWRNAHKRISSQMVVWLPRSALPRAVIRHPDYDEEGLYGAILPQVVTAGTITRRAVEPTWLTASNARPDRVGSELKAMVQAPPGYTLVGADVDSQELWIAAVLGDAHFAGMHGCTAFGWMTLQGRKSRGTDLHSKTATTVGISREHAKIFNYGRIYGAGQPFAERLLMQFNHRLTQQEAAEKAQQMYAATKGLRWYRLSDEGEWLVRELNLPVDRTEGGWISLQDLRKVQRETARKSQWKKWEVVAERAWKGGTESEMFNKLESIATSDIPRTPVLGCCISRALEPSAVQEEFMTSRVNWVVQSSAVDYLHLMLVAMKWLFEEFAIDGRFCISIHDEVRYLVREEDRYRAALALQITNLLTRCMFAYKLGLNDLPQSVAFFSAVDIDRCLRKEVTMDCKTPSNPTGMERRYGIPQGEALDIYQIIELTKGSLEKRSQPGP
T1 sequence (Q9UHN1 1-485 partner): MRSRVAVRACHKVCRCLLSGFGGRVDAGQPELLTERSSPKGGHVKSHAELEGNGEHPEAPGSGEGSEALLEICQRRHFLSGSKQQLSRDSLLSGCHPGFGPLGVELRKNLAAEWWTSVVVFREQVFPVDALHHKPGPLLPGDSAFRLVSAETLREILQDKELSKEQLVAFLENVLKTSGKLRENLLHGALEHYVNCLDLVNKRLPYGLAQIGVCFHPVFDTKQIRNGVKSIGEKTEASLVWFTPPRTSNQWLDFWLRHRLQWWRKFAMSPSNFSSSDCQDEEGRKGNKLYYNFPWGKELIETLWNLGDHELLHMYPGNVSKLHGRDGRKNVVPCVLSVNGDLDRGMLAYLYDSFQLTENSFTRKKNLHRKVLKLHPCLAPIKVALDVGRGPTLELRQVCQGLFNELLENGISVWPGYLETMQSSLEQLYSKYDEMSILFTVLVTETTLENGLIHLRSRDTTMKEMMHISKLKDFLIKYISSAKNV
Test: DNA polymerization assay, POLγA:A467T mutant
Assay type: biochemical
Conditions: stimulation of polymerase activity, primed M13mp18 ssDNA, 37° C. 2 hours; read-out: A467T AC50

Structure (SMILES)	AC50 [µM]
Cc1cc(S(=O)(=O)Nc2cccc(C(=O)N3CCN(C)CC3)c2)c(C)cc1Cl [Example 52, 4-chloro-2,5-dimethyl-N-(3-(4-methylpiperazine-1-carbonyl)phenyl)benzenesulfonamide]	> 100
Cc1cc(S(=O)(=O)Nc2cccc(C(=O)N3CCN(C)C[C@H]3C)c2)c(C)cc1Cl [Example 54, (R)-4-chloro-N-(3-(2,4-dimethylpiperazine-1-carbonyl)phenyl)-2,5-dimethylbenzenesulfonamide]	> 100
Cc1cc(S(=O)(=O)Nc2cccc(C(=O)N3CCN(CCO)CC3)c2)c(C)cc1Cl [Example 55, 4-chloro-N-(3-(4-(2-hydroxyethyl)piperazine-1-carbonyl)phenyl)-2,5-dimethylbenzenesulfonamide]	> 100
Cc1cc(S(=O)(=O)Nc2cccc(C(=O)N3CCC[C@H]3C)c2F)c(C)cc1Cl [Example 57, (R)-4-chloro-N-(2-fluoro-3-(2-methylpyrrolidine-1-carbonyl)phenyl)-2,5-dimethylbenzenesulfonamide]	> 100
O=S(=O)(Nc1cccc(-c2nccs2)c1)c1ccc(Cl)cc1 [Example 59, 4-chloro-N-(3-(thiazol-2-yl)phenyl)benzenesulfonamide]	> 100
Cc1ccc(C)c(S(=O)(=O)Nc2cccc(-c3nccs3)c2)c1 [Example 60]	5
Cc1cc(S(=O)(=O)Nc2cc(-c3nccs3)ccc2F)c(C)cc1Cl [Example 61, 4-chloro-N-(2-fluoro-5-(thiazol-2-yl)phenyl)-2,5-dimethylbenzenesulfonamide]	> 100
CC[C@@H]1CCCN1C(=O)c1cccc(NS(=O)(=O)c2cc(C)c(Cl)cc2C)c1 [Example 65, (R)-4-chloro-N-(3-(2-ethylpyrrolidine-1-carbonyl)phenyl)-2,5-dimethylbenzenesulfonamide]	15
Cc1cc(S(=O)(=O)Nc2cccc(C(=O)N3CCC[C@H]3C(C)C)c2)c(C)cc1Cl [Example 67, (S)-4-chloro-N-(3-(2-isopropylpyrrolidine-1-carbonyl)phenyl)-2,5-dimethylbenzenesulfonamide]	> 100
Cc1c(Cl)cccc1S(=O)(=O)Nc1csc(-c2ccccc2)n1 [Example 154, 3-chloro-2-methyl-N-(2-phenylthiazol-4-yl)benzenesulfonamide]	> 100
COc1ccccc1-c1nc(NS(=O)(=O)c2cc(C)c(Cl)cc2C)cs1 [Example 155, 4-chloro-N-(2-(2-methoxyphenyl)thiazol-4-yl)-2,5-dimethylbenzenesulfonamide]	> 100
Cc1cc(S(=O)(=O)N[C@H]2CCN(c3ccccc3)C2)c(C)cc1Cl [Example 158, (S)-4-chloro-2,5-dimethyl-N-(1-phenylpyrrolidin-3-yl)benzenesulfonamide]	> 100
Cc1cc(S(=O)(=O)Nc2cccc(C(=O)N3CCC(F)(F)C3)c2)c(C)cc1Cl [Example 160, 4-chloro-N-(3-(3,3-difluoropyrrolidine-1-carbonyl)phenyl)-2,5-dimethylbenzenesulfonamide]	> 100
Cc1cc(S(=O)(=O)N[C@H]2CCCN(c3ccccc3)C2)c(C)cc1Cl [Example 161, (S)-4-chloro-2,5-dimethyl-N-(1-phenylpiperidin-3-yl)benzenesulfonamide]	> 100
Cc1cc(S(=O)(=O)Nc2cccc(C(=O)N3CCCC34CC4)c2)c(C)cc1Cl [Example 162, N-(3-(4-azaspiro[2.4]heptane-4-carbonyl)phenyl)-4-chloro-2,5-dimethylbenzenesulfonamide]	91
CC(=O)N1CCC(c2nc(NS(=O)(=O)c3cc(C)c(Cl)cc3C)cs2)CC1 [Example 163, N-(2-(1-acetylpiperidin-4-yl)thiazol-4-yl)-4-chloro-2,5-dimethylbenzenesulfonamide]	> 100
Cc1cc(S(=O)(=O)Nc2csc(C(=O)N3CCCC3)n2)c(C)cc1Cl [Example 166, 4-chloro-2,5-dimethyl-N-(2-(pyrrolidine-1-carbonyl)thiazol-4-yl)benzenesulfonamide]	2
Cc1cc(S(=O)(=O)Nc2csc(C3CCOCC3)n2)c(C)cc1Cl [Example 167, 4-chloro-2,5-dimethyl-N-(2-(tetrahydro-2H-pyran-4-yl)thiazol-4-yl)benzenesulfonamide]	8

Other lines, results leading:

AC50 [µM]	Structure (SMILES)
> 100	Cc1cc(S(=O)(=O)Nc2cccc(C(=O)NCCO)c2)c(C)cc1Cl [Example 53, 3-((4-chloro-2,5-dimethylphenyl)sulfonamido)-N-(2-hydroxyethyl)benzamide]
> 100	Cc1cc(S(=O)(=O)Nc2cccc(C(=O)N(C)CCO)c2)c(C)cc1Cl [Example 56, 3-((4-chloro-2,5-dimethylphenyl)sulfonamido)-N-(2-hydoxyethyl)-N-methylbenzamide]
> 100	COCCN(C)C(=O)c1cccc(NS(=O)(=O)c2cc(C)c(Cl)cc2C)c1 [Example 58, 3-((4-chloro-2,5-dimethylphenyl)sulfonamido)-N-(2-methoxyethyl)-N-methylbenzamide]
> 100	Cc1cc(S(=O)(=O)Nc2cc(F)cc(-c3nccs3)c2)c(C)cc1Cl [Example 62, 4-chloro-N-(3-fluoro-5-(thiazol-2-yl)phenyl)-2,5-dimethylbenzenesulfonamide]
> 100	Cc1cc(S(=O)(=O)Nc2ccc(F)c(-c3nccs3)c2)c(C)cc1Cl [Example 63, 4-chloro-N-(4-fluoro-3-(thiazol-2-yl)phenyl)-2,5-dimethylbenzenesulfonamide]
8	Cc1cc(S(=O)(=O)Nc2cccc(-c3cc(C4CC4)[nH]n3)c2)c(C)cc1Cl [Example 64, 4-chloro-N-(3-(5-cyclopropyl-1H-pyrazol-3-yl)phenyl)-2,5-dimethylbenzenesulfonamide]
11	Cc1cc(-c2cccc(NS(=O)(=O)c3cc(C)c(Cl)cc3C)c2)n[nH]1 [Example 66, 4-chloro-2,5-dimethyl-N-(3-(5-methyl-1H-pyrazol-3-yl)phenyl)benzenesulfonamide]
16	Cc1cc(S(=O)(=O)Nc2cccc(-c3cc[nH]n3)c2)c(C)cc1Cl [Example 68, N-(3-(1H-pyrazol-3-yl)phenyl)-4-chloro-2,5-dimethylbenzenesulfonamide]
17	Cc1cc(S(=O)(=O)Nc2ccc3ccn(C(C)C)c3c2)c(C)cc1Cl [Example 69, 4-chloro-N-(1-isopropyl-1H-indol-6-yl)-2,5-dimethylbenzenesulfonamide]
32	Cc1nc2ccc(NS(=O)(=O)c3cc(C)c(Cl)cc3C)cc2o1 [Example 70, 4-chloro-2,5-dimethyl-N-(2-methylbenzo[d]oxazol-6-yl)benzenesulfonamide]
> 100	Cc1nc2cc(NS(=O)(=O)c3cc(C)c(Cl)cc3C)ccc2s1 [Example 71, 4-chloro-2,5-dimethyl-N-(2-methylbenzo[d]thiazol-5-yl)benzenesulfonamide]
> 100	Cc1cc(S(=O)(=O)Nc2nc(-c3ccccc3)co2)c(C)cc1Cl [Example 157, 4-chloro-2,5-dimethyl-N-(4-phenyloxazol-2-yl)benzenesulfonamide]
> 100	Cc1cc(S(=O)(=O)Nc2nc(-c3ccccc3)cn2C)c(C)cc1Cl [Example 159, 4-chloro-2,5-dimethyl-N-(1-methyl-4-phenyl-1H-imidazol-2-yl)benzenesulfonamide]
1	COc1cccc(-c2nc(NS(=O)(=O)c3cc(C)c(Cl)cc3C)cs2)c1 [Example 165, 4-chloro-N-(2-(3-methoxyphenyl)thiazol-4-yl)-2,5-dimethylbenzenesulfonamide]
